Blank lines part the entries; values can stand above or below the compound they belong to.
How the values were obtained:
[1] = (§1) Inhibitory activity against Melanin-concentrating hormone receptor 1; parameters: species or system Homo sapiens
[2] = target: T1, Alpha-1A adrenergic receptor (Homo sapiens) (UniProt P35348); assay: Inhibitory activity against human adrenergic alpha-1A receptor at 1 uM concentration
T1 sequence (whole entry): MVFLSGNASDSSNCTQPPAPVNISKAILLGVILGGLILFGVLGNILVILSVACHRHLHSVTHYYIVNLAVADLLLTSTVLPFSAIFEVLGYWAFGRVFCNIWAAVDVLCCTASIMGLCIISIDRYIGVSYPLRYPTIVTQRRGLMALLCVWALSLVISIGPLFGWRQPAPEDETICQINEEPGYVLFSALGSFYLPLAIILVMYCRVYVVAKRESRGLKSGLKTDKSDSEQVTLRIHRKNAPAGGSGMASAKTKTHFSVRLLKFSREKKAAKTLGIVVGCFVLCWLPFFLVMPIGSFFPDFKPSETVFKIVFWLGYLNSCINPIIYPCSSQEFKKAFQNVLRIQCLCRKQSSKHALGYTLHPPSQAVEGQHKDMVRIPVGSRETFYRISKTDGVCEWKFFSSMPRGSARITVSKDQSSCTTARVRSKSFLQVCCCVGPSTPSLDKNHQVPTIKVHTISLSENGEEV

[3] = target: T2, 5-hydroxytryptamine receptor 2C (Homo sapiens) (UniProt P28335); assay: Inhibitory activity against human 5-HT2C receptor at 1 uM concentration
T2 sequence (whole entry): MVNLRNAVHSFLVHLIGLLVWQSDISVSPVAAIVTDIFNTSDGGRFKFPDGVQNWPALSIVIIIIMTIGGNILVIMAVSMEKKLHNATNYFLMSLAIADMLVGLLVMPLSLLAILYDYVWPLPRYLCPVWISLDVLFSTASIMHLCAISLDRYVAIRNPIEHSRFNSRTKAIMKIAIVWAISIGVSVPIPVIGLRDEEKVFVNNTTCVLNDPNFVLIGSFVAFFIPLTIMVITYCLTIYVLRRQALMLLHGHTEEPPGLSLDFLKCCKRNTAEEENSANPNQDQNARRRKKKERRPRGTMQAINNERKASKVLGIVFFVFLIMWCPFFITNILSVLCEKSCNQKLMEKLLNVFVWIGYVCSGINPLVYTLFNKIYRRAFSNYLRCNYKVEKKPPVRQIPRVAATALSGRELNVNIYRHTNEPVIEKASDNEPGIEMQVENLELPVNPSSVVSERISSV

Homo sapiens = species on record: Homo sapiens; assay: Selectivity ratio for MCH-1R versus 5-HT2B receptor
[4] = target: T3, 5-hydroxytryptamine receptor 2A (Homo sapiens, UniProt P28223); assay: Inhibitory activity against human 5-HT2A receptor at 1 uM concentration
[5] = target: T4, Melanin-concentrating hormone receptor 1 (Homo sapiens, UniProt Q99705); assay: Tested for MCH-1 induced [Ca2+] release from CHO cells transfected with human MCH-1R; format: cell-based
[6] = target: D(2) dopamine receptor (Homo sapiens) (UniProt P14416); assay: Inhibitory activity against human D2 receptor at 1 uM concentration
[7] = target: T5, 5-hydroxytryptamine receptor 2B (Homo sapiens, UniProt P41595); assay: Inhibitory activity against human 5-HT2B receptor at 1 uM concentration
[8] = target: T5, 5-hydroxytryptamine receptor 2B; assay: Inhibitory activity against human 5-HT2B receptor
[9] = target: T6, 5-hydroxytryptamine receptor 2C (Homo sapiens, UniProt P28335); assay: Inhibitory activity against human 5-HT2C receptor
T6 sequence (P28335 whole entry): T2 sequence (whole entry)

[10] = target: T1, Alpha-1A adrenergic receptor (Homo sapiens); assay: Inhibitory activity against human adrenergic alpha-1A receptor at 10 uM
[11] = target: D(2) dopamine receptor (Homo sapiens) (UniProt P14416); assay: Inhibitory activity against human D2 receptor at 10 uM
[12] = target: T3, 5-hydroxytryptamine receptor 2A; assay: Inhibitory activity against human 5-HT2A receptor
[13] = target: T4, Melanin-concentrating hormone receptor 1; assay: as §1; details: concentration not given here
[14] = target: T4, Melanin-concentrating hormone receptor 1; assay: Inhibitory activity against Melanin-concentrating hormone receptor 1 at 1 uM
[15] = target: D(2) dopamine receptor (Homo sapiens) (UniProt P14416); assay: Inhibitory activity against human D2 receptor at 10 uM concentration
[16] = target: T1, Alpha-1A adrenergic receptor (Homo sapiens); assay: Inhibitory activity against human adrenergic alpha-1A receptor at 10 uM concentration

T5 sequence (P41595 whole entry): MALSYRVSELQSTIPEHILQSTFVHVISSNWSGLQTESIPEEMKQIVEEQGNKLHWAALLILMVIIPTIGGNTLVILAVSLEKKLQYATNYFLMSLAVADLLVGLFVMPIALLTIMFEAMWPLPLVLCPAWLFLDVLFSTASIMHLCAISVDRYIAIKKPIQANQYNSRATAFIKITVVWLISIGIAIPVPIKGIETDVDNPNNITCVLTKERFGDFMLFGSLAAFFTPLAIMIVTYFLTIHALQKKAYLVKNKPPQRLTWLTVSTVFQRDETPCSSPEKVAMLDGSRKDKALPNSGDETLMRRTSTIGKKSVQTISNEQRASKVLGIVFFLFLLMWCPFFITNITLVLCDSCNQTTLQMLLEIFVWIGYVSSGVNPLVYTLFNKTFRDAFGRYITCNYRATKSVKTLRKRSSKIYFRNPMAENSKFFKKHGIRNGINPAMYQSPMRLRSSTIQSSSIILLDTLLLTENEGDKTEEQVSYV
T3 sequence (P28223 whole entry): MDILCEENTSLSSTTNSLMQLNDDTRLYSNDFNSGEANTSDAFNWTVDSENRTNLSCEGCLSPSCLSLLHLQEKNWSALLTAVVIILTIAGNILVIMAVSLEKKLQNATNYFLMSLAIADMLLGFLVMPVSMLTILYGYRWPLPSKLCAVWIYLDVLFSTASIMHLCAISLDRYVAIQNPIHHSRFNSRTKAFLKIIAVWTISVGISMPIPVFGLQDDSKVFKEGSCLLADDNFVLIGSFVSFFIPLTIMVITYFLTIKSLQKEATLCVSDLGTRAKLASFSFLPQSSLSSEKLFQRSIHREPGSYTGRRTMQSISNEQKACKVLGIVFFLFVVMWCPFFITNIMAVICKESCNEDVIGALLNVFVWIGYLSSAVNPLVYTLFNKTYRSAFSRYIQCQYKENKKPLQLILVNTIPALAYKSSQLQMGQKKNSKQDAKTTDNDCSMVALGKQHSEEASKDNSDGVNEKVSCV
Chain of D(2) dopamine receptor (Homo sapiens) (P14416 whole entry): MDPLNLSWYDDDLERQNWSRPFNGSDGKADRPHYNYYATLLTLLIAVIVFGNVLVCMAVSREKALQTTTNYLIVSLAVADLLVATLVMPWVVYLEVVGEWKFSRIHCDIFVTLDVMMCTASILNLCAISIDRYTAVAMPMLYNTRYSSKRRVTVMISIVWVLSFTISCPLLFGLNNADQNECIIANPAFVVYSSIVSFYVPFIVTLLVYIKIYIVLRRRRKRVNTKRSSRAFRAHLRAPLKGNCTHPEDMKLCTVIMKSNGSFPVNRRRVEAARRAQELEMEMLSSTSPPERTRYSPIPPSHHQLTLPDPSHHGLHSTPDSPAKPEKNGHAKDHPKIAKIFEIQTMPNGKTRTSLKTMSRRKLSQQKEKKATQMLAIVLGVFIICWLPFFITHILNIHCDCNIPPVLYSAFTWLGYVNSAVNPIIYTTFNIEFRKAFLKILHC
T4 sequence (Q99705 whole entry): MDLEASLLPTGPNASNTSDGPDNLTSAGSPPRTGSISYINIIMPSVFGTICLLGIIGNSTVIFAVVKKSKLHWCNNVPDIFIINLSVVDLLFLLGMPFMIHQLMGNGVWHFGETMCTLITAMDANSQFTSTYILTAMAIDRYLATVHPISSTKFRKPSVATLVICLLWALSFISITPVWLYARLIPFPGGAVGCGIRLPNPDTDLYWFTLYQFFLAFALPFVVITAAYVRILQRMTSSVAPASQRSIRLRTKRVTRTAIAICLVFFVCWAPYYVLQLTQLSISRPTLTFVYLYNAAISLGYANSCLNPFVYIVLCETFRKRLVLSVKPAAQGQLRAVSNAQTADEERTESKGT

SMILES: COc1ccc(OCC(=O)Nc2ccc3nc(N4CCN(C)CC4)cc(C)c3c2)cc1
IC50 [1]: 152 nM

SMILES: Cc1ccccc1OCC(=O)Nc1ccc2nc(N3CCN(C)CC3)cc(C)c2c1
IC50 [1]: 1050 nM

SMILES: Cc1cc(N2CCN(C)CC2)nc2ccc(NC(=O)CSCc3ccc(Cl)cc3)cc12
inhibition [14]: 38%

SMILES: Cc1cc(N2CCN(C)CC2)nc2ccc(NC(=O)COc3cccc(Cl)c3)cc12
inhibition [13]: 19%

SMILES: Cc1cc(N2CCN(C)CC2)nc2ccc(NC(=O)COc3ccc(OC(F)(F)F)cc3)cc12
IC50 [1]: 36 nM

SMILES: Cc1cc(N2CCCC2)nc2ccc(NC(=O)COc3ccc(C(F)(F)F)cc3)cc12
inhibition [2]: 10% | inhibition [3]: 7% | Ratio (Homo sapiens): > 200 | inhibition [4]: 11% | IC50 [5]: 10 nM | inhibition [6]: 7% | IC50 [1]: 15 nM

SMILES: Cc1cc(N2CCCCC2)nc2ccc(NC(=O)COc3ccc(C(F)(F)F)cc3)cc12
IC50 [1]: 226 nM

SMILES: Cc1ccc(OCC(=O)Nc2ccc3nc(N4CCN(C)CC4)cc(C)c3c2)cc1
IC50 [1]: 80 nM

SMILES: Cc1cc(N2CCN(C)CC2)nc2ccc(NC(=O)COc3ccc(C(F)(F)F)cc3)cc12
IC50 [8]: 442 nM | inhibition [15]: 41% | inhibition [3]: 39% | Ratio (Homo sapiens): 32 | inhibition [4]: 27% | IC50 [5]: 63 nM | inhibition [16]: 85% | IC50 [1]: 14 nM

SMILES: Cc1cc(N2CCN(C)CC2)nc2ccc(NC(=O)COCc3ccc(Cl)cc3)cc12
inhibition [14]: 19%

Other lines, results leading:

inhibition [2]: 5% | inhibition [3]: 27% | Ratio (Homo sapiens): > 11 | inhibition [4]: 27% | IC50 [5]: 124 nM | inhibition [6]: 43% | inhibition [7]: 19% | IC50 [1]: 91 nM
SMILES: Cc1cc(N2CCOCC2)nc2ccc(NC(=O)COc3ccc(C(F)(F)F)cc3)cc12

IC50 [1]: 300 nM
SMILES: Cc1cc(N2CCN(C)CC2)nc2ccc(NC(=O)CCc3ccc(Cl)cc3)cc12

IC50 [1]: 22 nM
SMILES: Cc1cc(N(C)CCN(C)C)nc2ccc(NC(=O)COc3ccc(C(F)(F)F)cc3)cc12

IC50 [8]: 349 nM | IC50 [9]: 970 nM | inhibition [10]: 84% | inhibition [11]: 35% | IC50 [1]: 55 nM | IC50 [12]: 2180 nM
SMILES: Cc1cc(N2CCN(C)CC2)nc2ccc(NC(=O)COc3ccc(Cl)cc3)cc12

IC50 [1]: 470 nM
SMILES: Cc1cc(N2CCN(C)CC2)nc2ccc(NC(=O)COc3ccccc3Cl)cc12

IC50 [1]: 370 nM
SMILES: Cc1cc(N2CCN(C)CC2)nc2ccc(NC(=O)COc3ccc(C#N)cc3)cc12

inhibition [13]: 0%
SMILES: COc1ccccc1OCC(=O)Nc1ccc2nc(N3CCN(C)CC3)cc(C)c2c1

IC50 [1]: 174 nM
SMILES: Cc1cc(N(C)C)nc2ccc(NC(=O)COc3ccc(C(F)(F)F)cc3)cc12

inhibition [14]: 9%
SMILES: COc1cccc(OCC(=O)Nc2ccc3nc(N4CCN(C)CC4)cc(C)c3c2)c1

IC50 [1]: 1680 nM
SMILES: Cc1cc(N2CCN(C)CC2)nc2ccc(NC(=O)COc3ccc(F)cc3)cc12

IC50 [1]: 38 nM
SMILES: Cc1cc(NC2CCCC2)nc2ccc(NC(=O)COc3ccc(C(F)(F)F)cc3)cc12

inhibition [14]: 2%
SMILES: Cc1cc(N2CCN(C)CC2)nc2ccc(NC(=O)COc3ccccc3)cc12

inhibition [14]: 40%
SMILES: Cc1cc(N(C)Cc2ccccc2)nc2ccc(NC(=O)COc3ccc(C(F)(F)F)cc3)cc12

IC50 [8]: 400 nM | inhibition [2]: 24% | inhibition [3]: 18% | Ratio (Homo sapiens): 36 | inhibition [4]: 18% | inhibition [6]: 2% | IC50 [1]: 11 nM
SMILES: Cc1cc(NC(C)C)nc2ccc(NC(=O)COc3ccc(C(F)(F)F)cc3)cc12
